Earlier results in patent publication US11179370B2, “Cannabinoid receptor antagonists/inverse agonists useful for treating disease conditions, including metabolic disorders and cancers” (Jenrin Discovery, LLC, priority 2012, dated 2021).

Conditions: type 2 diabetes patients without other anti-diabetic medication, after six months of treatment, baseline value 7.9

Cc1c(C(=O)NN2CCCCC2)nn(-c2ccc(Cl)cc2Cl)c1-c1ccc(Cl)cc1 [rimonabant]
HbA1c levels lowered: 0.8%
